Test [1] deals with Neuron. The test can be described thus: Inhibition of NGF-stimulated extension of neural processes in chick embryo neurons at 300 nM. In kind it is functional, cell-based. To be noted: Gallus gallus.
The subject of test [2] is Neuron. The test can be described thus: Inhibition of NGF-stimulated extension of neural processes in chick embryo neurons at 80 nM. To be noted: Gallus gallus. It counts as functional.

Molecules are shown by their SMILES. The source made the active and inactive calls. The rule behind the calls is not given here.

On to `C=C1C(=O)O[C@H]2[C@H]1[C@@H](OC(=O)[C@@]1(C)CO1)CC(=C)[C@@H]1C[C@H](O)[C@]3(CO3)[C@H]21`, for which the outcome with Neuron [1] was Active.

With `C=C1C(=O)O[C@H]2[C@H]1[C@@H](OC(=O)[C@]1(C)CO1)CC(=C)[C@@H]1C[C@H](O)[C@]3(CO3)[C@H]21` [REPIN], in the test with Neuron [2], the inhibition at 0.08 µM stood at 50%.

As a reminder, the inhibition is how much of the control response was suppressed.
